Results published in US12070483B2, “Compositions and methods for treatment of acute lung injury” (THE TRUSTEES OF THE UNIVERSITY OF PENNSYLVANIA, priority 2018, dated 2024).

What was measured:
[1] = system: C57Bl/6 mice, LPS-mediated lung injury; experiment: Acute lung injury after intratracheal LPS (5 μg/g), lungs evaluated at 24 h; format: in vivo, mouse; details: for lung injury, peptide administered along with LPS (0 time): evaluated at 24 hours after LPS; for lung injury, peptide administered at 12-16 hours after LPS: sacrifice @ 24 hours
Protocol: The IT model of acute lung injury (ALI) as shown in Table 9 was used to test the effects of PIP-2. […] IV administration of PIP-2 was used to avoid a second ‘assault’ on the trachea. Mice were sacrificed at 24 hours and lungs were evaluated for injury as described in Table 9. Protection (%) against lung injury was calculated as [1−(injury with PIP-2−control)/(LPS alone−control)]. Results are mean±SE for n=4. *P<0.01 vs control. ^†P<0.01 vs no PIP, 24 hours.
To study the effect of PIP-2 administration on lung injury, mice were treated with LPS (5 μg/g body weight) given IT. […] PIP-2 (2 μg/g body weight in liposomes) was administered at 0, 12, or 16 h after LPS. We have shown previously that this dose of PIP-2 can inhibit lung aiPLA2 activity by ˜90% for at least 24 h. PIP-2 was given IT at time zero and IV at 12 or 16 h in order to avoid excessive damage to the trachea. Animals were sacrificed and lungs were examined at 24 h after LPS. All indices of lung injury, reflecting lung inflammation, alveolar-capillary barrier dysfunction, lung fluid accumulation, and tissue oxidative stress, were elevated in LPS-treated mice as compared to control (p<0.05). […] Since lung injury was present in lungs at 12 and 16 h after LPS, the normal values at 24 h in lungs from LPS treated mice given PIP-2 at 12 or 16 h can only mean that lungs were able to recover fully from their injury during the 8 to 12 h interval between the administration of PIP-2 and examination of the lungs.

NOX2 = experiment: ROS production (Amplex red) of isolated perfused mouse lung stimulated with angiotensin II; format: in vivo; details: for ROS production by AngII-activated NOX2 in the isolated mouse lung: ex_vivo
Protocol: FIGS. 5A and 5B: PIP-2, incorporated within liposomes, was instilled intratracheally prior to lung isolation. FIG. 5A: Isolated lungs were perfused in a recirculating system with artificial medium. NOX2 activity was stimulated by addition of angiotensin II (Ang II). Amplex red along with horseradish peroxidase were added to the perfusate for detection of ROS production. Aliquots of perfusate were analyzed at intervals by spectrophotometry to determine oxidation of amplex red, indicating ROS production. Results are mean±SE for N=3-4. FIG. 5B: Mice were sacrificed at 6, 12, or 24 h after LPS administration ([…]) and lungs were perfused in situ for 15 min with saline solution containing a fluorophore (difluorofluorescein diacetate, DFFDA). Lungs then were homogenized and fluorescence of the lung homogenate was determined as an index of ROS production. Results for FIG. 5A & FIG. 5B are mean±SE for N=4. *P<0.05 vs corresponding LPS and LPS+PIP-2; § P<0.05 vs 12 h and 24 h LPS; ΔP<0.05 vs corresponding LPS.
FIG. 8: PLA2 inhibitory peptide (PIP-2) inhibits ROS production stimulated by angiotensin II (Ang II) in isolated perfused mouse lung. PIP-2 (2 μg/g body weight) was administered to intact wild type (WT) mice by the IV route. […] After 30 mins, lungs were isolated from anesthesized mice and perfused in a recirculating system with added Ang II ([…]) as a Nox2 activator and Amplex red plus horseradish peroxidase to detect perfusate ROS. WT basal lungs were not stimulated with Ang II. After a 15 min equilibration period (called zero time), aliquots were taken at 15 min intervals for analysis of fluorescence. Each plotted point represents the mean±SE for n=3. The lines were drawn by the least mean squares method. The mean rates of ROS […] calculated from the slope of each line are indicated in parentheses. *P<0.05 vs the other 3 slopes.
FIG. 10: Effect of liposome composition on delivery of PIP-2 to lungs after IV administration. […]
The effect of the PIPs on ROS production in control (untreated) lungs was determined in vitro with isolated perfused lungs. […] The basal rate of ROS production was evaluated with WT lungs that were perfused in the absence of AngII. […] Aliquots of perfusate were taken at 15 min intervals and analyzed by fluorescence for resorufin (λexcitation 568 nm, λemission 581 nm), the product of Amplex red oxidation. The rate of Amplex red oxidation was calculated and expressed as arbitrary fluorescence units (AFU) with normalization to mouse body wt. There was a low rate of Amplex red oxidation in the absence of HRP in the perfusate (˜7% of the AngII-stimulated fluorescence), indicating a non-ROS-mediated oxidation of the fluorophore; this value was subtracted to obtain the reported values.

recombinant hPrdx6 = biological target: T1, recombinant hPrdx6 (Homo sapiens, UniProt P30041); experiment: aiPLA2 activity of recombinant human Prdx6 in presence of peptide; format: biochemical; details: for aiPLA2 activity of human recombinant protein: Table 2, hPrdx6 only 92.0
T1 sequence (P30041 1-224): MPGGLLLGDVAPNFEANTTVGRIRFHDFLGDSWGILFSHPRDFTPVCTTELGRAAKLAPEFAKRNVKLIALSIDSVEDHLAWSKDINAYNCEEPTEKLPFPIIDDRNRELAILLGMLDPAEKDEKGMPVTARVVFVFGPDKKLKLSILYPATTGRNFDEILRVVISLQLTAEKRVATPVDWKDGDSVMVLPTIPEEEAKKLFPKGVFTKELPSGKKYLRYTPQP

[2] = LPS 5 μg/g IT, PIP-2 2 μg/g IV @12 hr, sacrifice at 24 hrs
[3] = LPS 5 μg/g IT, PIP-2 2 μg/g IV @16 h, sacrifice at 24 hrs
[4] = Control: PIP in liposomes IT, no LPS
[5] = Control: PIP in liposomes, no LPS
[6] = LPS 5 μg/g IT, PIP-4 2 μg/g IV @12 hr, sacrifice at 24 hrs
[7] = LPS 5 μg/g IT, PIP-4 2 μg/g IV @16 h, sacrifice at 24 hrs

## LHDFRHQIL (Inhibitory peptide.) [PIP-2]
[1]; LPS 5 μg/g IT, PIP-2 2 μg/g IT @0 hrs, sacrifice at 24 hrs, control 0.95, LPS 8.67
  # of cells: 0.92 ± 0.02 ×10^4/g wt
[1]; LPS 5 μg/g IT, PIP-2 2 μg/g IT @0 hrs, sacrifice at 24 hrs, control 5.59, LPS 8.10
  Wet/Dry lung weight ratio: 5.50 ± 0.04
[1]; LPS 5 μg/g IT, PIP-2 2 μg/g IT @0 hrs, sacrifice at 24 hrs, control 5.6, LPS 16.9
  Protein carbonyls: 5.4 ± 0.1 nmol/mg prot
[1]; LPS 5 μg/g IT, PIP-2 2 μg/g IT @0 hrs, sacrifice at 24 hrs, control 34, LPS 101
  8-Isoprostanes: 31 ± 2 pmol/mg prot
[1]; LPS 5 μg/g IT, PIP-2 2 μg/g IT @0 hrs, sacrifice at 24 hrs, control 75, LPS 164
  protein: 71 mg protein/g wt
[1]; LPS 5 μg/g IT, PIP-2 2 μg/g IT @0 hrs, sacrifice at 24 hrs, control 75, LPS 381
  TBARS: 70 ± 2.1 pmol/mg prot.
[1]; [2]
  8-Isoprostanes: 38 ± 1 pmol/mg prot
  # of cells: 1.45 ± 0.03 ×10^4/g wt
  Protein carbonyls: 6.4 ± 0.2 nmol/mg prot
  TBARS: 85 ± 5.2 pmol/mg prot.
  Wet/Dry lung weight ratio: 5.95 ± 0.02
  protein: 84 ± 1.2 mg protein/g wt
[1]; [3]
  8-Isoprostanes: 40 ± 1 pmol/mg prot
  # of cells: 1.43 ± 0.2 ×10^4/g wt
  Protein carbonyls: 6.4 ± 0.3 nmol/mg prot
  TBARS: 89 ± 9.3 pmol/mg prot.
  Wet/Dry lung weight ratio: 6.19 ± 0.06
  protein: 82.0 ± 1.2 mg protein/g wt
[1]; PIP-2 at 12 or 16 hours after LPS, evaluated at 24 hours
  protection against lung injury: 85-95%
[1]
  lung injury, peptide administered along with LPS (0 time): completely prevented lung injury
  lung injury, peptide administered at 12-16 hours after LPS: prevents further injury
[1]; evaluated at 24 hr after IT LPS, PIP-2 at 0, 12 or 16 h after LPS
  protection against lung injury: > 75%
NOX2; PIP-2 2 μg/g in liposomes IV, WT lungs, Ang II 50 μM
  inhibition of ROS production: ~75%
NOX2
  ROS production by AngII-activated NOX2 in the isolated mouse lung: inhibit ROS production
Recombinant hPrdx6
  aiPLA2 activity of human recombinant protein: 29.9 nmol/min/mg prot.
Recombinant hPrdx6; Table 3, hPrdx6 only 99.91
  aiPLA2 activity of human recombinant Prdx6: 26.18 nmol/min/mg prot.

## LYEIKHQIL (Inhibitory peptide.) [PIP-4]
[1]; [4]
  8-Isoprostanes: 34 ± 1 pmol/mg prot
  Protein carbonyls: 5.8 ± 0.2 nmol/mg prot
  TBARS: 76 ± 2 pmol/mg prot.
[1]; [5]
  # of cells: 0.96 ± 0.03 ×10^4/g wt
  Wet/Dry lung weight ratio: 5.59 ± 0.02
  protein: 78 ± 2 μg protein/g wt
[1]; LPS 5 μg/g IT, PIP-4 2 μg/g IT @0 hrs, sacrifice at 24 hrs, LPS alone 7.40
  Wet/Dry lung weight ratio: 6.1 ± 0.01
[1]; LPS 5 μg/g IT, PIP-4 2 μg/g IT @0 hrs, sacrifice at 24 hrs, LPS alone 8.5
  # of cells: 0.95 ± 0.02 ×10^4/g wt
[1]; LPS 5 μg/g IT, PIP-4 2 μg/g IT @0 hrs, sacrifice at 24 hrs, LPS alone 16.9
  Protein carbonyls: 5.9 ± 0.3 nmol/mg prot
[1]; LPS 5 μg/g IT, PIP-4 2 μg/g IT @0 hrs, sacrifice at 24 hrs, LPS alone printed 1.02 ± 3
  8-Isoprostanes: 32 ± 2 pmol/mg prot
[1]; [6]
  # of cells: 1.46 ± 0.25 ×10^4/g wt
  Protein carbonyls: 6.4 ± 0.1 nmol/mg prot
  protein: 85 ± 2 μg protein/g wt
[1]; [7]
  # of cells: 1.44 ± 0.12 ×10^4/g wt
  Protein carbonyls: 6.4 ± 0.1 nmol/mg prot
  TBARS: 85 ± 2 pmol/mg prot.
  Wet/Dry lung weight ratio: 6.12 ± 0.09
  protein: 83 ± 1 μg protein/g wt
[1]
  lung injury, peptide administered along with LPS (0 time): prevents lung injury
  lung injury, peptide administered at 12-16 hours after LPS: prevents further injury
NOX2
  ROS production by AngII-activated NOX2 in the isolated mouse lung: inhibit ROS production
Recombinant hPrdx6
  aiPLA2 activity of human recombinant protein: 32.3 nmol/min/mg prot.
